Source: patent publication US20230073449A1, “STROMA-FREE T CELL DIFFERENTIATION FROM HUMAN PLURIPOTENT STEM CELLS” (THE CHILDREN'S MEDICAL CENTER CORPORATION, priority 2020, published 2023)
Entries after “also recorded” stand apart in the source; their conditions may differ.

How the values were obtained:
5F cells (5F HSPCs) = test: Primary screen of Cayman epigenetic library in 5F cells, stromal-free T cell differentiation (proT readout); assay type: cell-based, human; conditions: for CD5+ CD7+ %: 5F cells, control cells 11.60%; for CD5+ CD7+ % / Z score: e.g., at 500 nM; for Z score: calculated from the number of T progenitors after treatment, Z score greater than 3 = primary hit; for proT cells generated from 5F HSPCs after treatment with primary hits (fold change / number): first screen, FIG. 8
Source text: FIG. 6 is a schematic showing a primary screen for small molecule inhibitors of epigenetic factors that promote T cell specification, using the stromal-free T cell differentiation methods as described herein. “5F cells” refer to cells expressing 5 transcription factors (HOXA9, ERG, RORA, SOX4, and MYB). The Cayman epigenetic library contains more than 140 small molecules that are known to modulate the activity of a variety of epigenetic ‘writers and erasers’ and ‘reader’ proteins. It may include compounds that modulate the activity of methyltransferases, demethylases, histone acetyltransferases, histone deacetylases, and acetylated histone binding proteins; see e.g., caymanchem.com/product/11076/epigenetics-screening-library-(96-well).
FIG. 7 is a scatterplot showing identification of primary hits from the screen described in FIG. 6. Z scores were calculated for all the small molecules based on the number of T progenitors after treatment. Any small molecule with a Z score greater that 3 was considered as a primary hit. See e.g., Table 2.
FIG. 8 is a bar chart showing fold change of the proT cells generated from 5F HSPCs after treatment with primary hits identified in FIG. 7 (see e.g., Table 2).
(§1) A group of epigenetic regulators were tested for their ability to promote T cell differentiation. […] UNCO224 is an inhibitor of G9a/GLP, so a variety of other G9a/GLP inhibitors were tested.

[1] = test system: class I HDAC (e.g., HDAC1, HDAC2, HDAC3); conditions: cited from earlier work
[2] = test system: iPSC-derived CD34+ hemogenic endothelial (HE) cells; test: Second screen and dose response in wild type iPSC-derived CD34+ hemogenic endothelial (HE) cells, stromal-free T cell differentiation; assay type: cell-based, human; conditions: for proT cells generated from CD34+ HE cells after treatment with G9a inhibitors at different doses: FIG. 13B-13F; for Exemplary effective dose(s): promotion of T cell differentiation from CD34+ HE cells, 13B-13F
Description: FIG. 9 is a schematic showing a second screen using wild type iPSC-derived CD34+ hemogenic endothelial (HE) cells (not 5F HSPCs, e.g., as used in […] and Table 2), to test small molecule inhibitors of epigenetic factors for promotion of T cell differentiation.
FIG. 10A-10B is a series of graphs showing the results of the screen from FIG. 9. FIG. 10A is a scatterplot of Z scores, which were calculated for all the small molecules based on the number of T progenitors after treatment. Any small molecule with a Z score greater that 3 was considered as a primary hit. FIG. 10B is a bar graph showing verification of the primary hits. Primary hits were tested in triplicate.
FIG. 12A is a schematic summarizing the experiments (see e.g., FIG. 6-11, Table 2). FIG. 12B is a bar chart showing fold change of proT cells generated from CD34^+ HE cells after treated with UNCO224 at different doses.
FIG. 13A-13F is a series of schematics and graphs showing that G9 inhibitors promote T cell differentiation using the stromal-free differentiation methods as described herein. FIG. 13A is a schematic summarizing the experiments (see e.g., FIG. 6-12, Table 2). FIGS. 13B-13E are a bar charts showing fold change of proT cells generated from CD34^+ HE cells after treatment with other G9a inhibitors at different doses.
as §1

MDA-MB-231 cells = conditions: in MDA-MB-231 cells; cited from earlier work
HDAC = conditions: pan-HDAC, with exception for HDAC6; cited from earlier work
[3] = molecular target: class III isoenzyme SIRT1 (Homo sapiens, UniProt Q96EB6); conditions: cited from earlier work
CD34+ CD45+ HSPC cells = test: T cell differentiation of CD34+ CD45+ HSPCs after UNC0224 treatment; assay type: cell-based, human
Description: (§2) FIG. 14A-14C is a series of schematics and graphs showing that UNCO224 enhances T cell commitment at expense of erythroid/myeloid potential. FIG. 14A is a schematic showing a test of whether UNCO224 specifically affects T cell differentiation. iPSC-derived CD34+ HE cells were treated with UNCO224 and differentiated into CD34+ CD45+ hematopoietic stem and progenitor cells (HSPC). These HSPCs were used to generate T cells, erythroid cells, and myeloid cells to determine their multipotency. FIG. 14B is a bar chart showing fold change of proT cells generated from CD34+ CD45+ HSPC cells after treatment with UNCO224 (500 nM). […] FIG. 14C is a bar chart showing number of different types of colonies generated from CD34+ CD45+ HSPCs in a colony-forming unit (CFU) assay. E, erythroid; M, macrophage; G, granulocyte; GM, granulocyte/macrophage; GEMM, granulocyte/erythroid/macrophage/megakaryocyte.
FIG. 15A-15C is a series of graphs showing that UNCO224 promotes T cell specification rather than cell proliferation. FIG. 14B is a bar chart showing fold change of proT cells generated from CD34+ CD45+ HSPC cells after treatment with UNCO224 (500 nM). […] FIG. 14B is a bar chart showing fold change of total cell numbers after 14 days of T cell differentiation of CD34+ CD45+ HSPCs treated with DMSO or UNCO224. […] FIG. 14C is a bar chart showing the percentage of proT cells generated from CD34+ CD45+ HSPCs treated with DMSO or UNCO224. […] N=3, **** P≤0.0001.
(§3) UNCO224 enhanced T cell commitment at expense of erythroid/myeloid potential. […] UNCO224 also promoted T cell specification rather than cell proliferation. […] Without wishing to be bound by theory, it is anticipated that H3K9 methylation mediates repression of lymphoid genes. As such, treatment with inhibitors of H3K9 methylation (see e.g., FIG. 6-16, Tables 2-3) promotes T cell differentiation, e.g., when using stromal-free T cell differentiation methods as described herein. Such H3K9 methylation inhibitors can be used in place of, or in combination with, inhibition of histone methyltransferases (e.g., EZH1 knockdown).

CD34+ CD45+ HSPCs = test: Colony-forming unit (CFU) assay of CD34+ CD45+ HSPCs; assay type: cell-based, human; conditions: FIG. 14C
Description: as §2
as §3, with “Such H3K9 methylation inhibitors can be used in place of, or in combination with, inhibition of histone methyltransferases (e.g., EZH1 knockdown).” left out

Sequence of class III isoenzyme SIRT1 (Q96EB6 whole entry): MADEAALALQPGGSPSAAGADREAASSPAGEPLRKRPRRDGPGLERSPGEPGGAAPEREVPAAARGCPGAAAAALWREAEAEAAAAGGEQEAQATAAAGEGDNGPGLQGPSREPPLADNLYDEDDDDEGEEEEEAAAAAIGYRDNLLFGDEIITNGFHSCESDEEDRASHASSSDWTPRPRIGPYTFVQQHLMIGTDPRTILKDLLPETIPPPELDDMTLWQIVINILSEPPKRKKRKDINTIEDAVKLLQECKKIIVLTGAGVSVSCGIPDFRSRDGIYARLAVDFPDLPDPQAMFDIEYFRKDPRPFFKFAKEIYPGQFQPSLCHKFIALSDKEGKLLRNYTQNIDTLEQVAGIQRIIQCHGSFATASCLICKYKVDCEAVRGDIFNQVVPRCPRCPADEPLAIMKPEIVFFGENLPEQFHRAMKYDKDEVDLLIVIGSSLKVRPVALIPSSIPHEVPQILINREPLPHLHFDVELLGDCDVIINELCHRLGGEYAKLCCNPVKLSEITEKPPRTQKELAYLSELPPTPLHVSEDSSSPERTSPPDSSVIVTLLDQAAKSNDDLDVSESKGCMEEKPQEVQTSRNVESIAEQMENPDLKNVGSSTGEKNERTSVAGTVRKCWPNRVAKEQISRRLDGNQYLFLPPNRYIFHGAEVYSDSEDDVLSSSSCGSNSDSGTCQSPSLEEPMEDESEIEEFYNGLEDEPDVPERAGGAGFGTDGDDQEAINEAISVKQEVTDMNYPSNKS

Compound	CD5+ CD7+ % (5F cells (5F HSPCs))	Z score (5F cells (5F HSPCs))	other results
Oxamflatin [Oxaflatin]	12.4%	6.54	
Cn1cc(/C=C/C(=O)c2cccc(F)c2)cc1/C=C/C(=O)NO [MC1568]	14.0%	5.829	proT cells generated from 5F HSPCs after treatment with primary hits (fold change / number) (5F cells (5F HSPCs)): significantly increased; also recorded: confirmed to promote T cell specification; inhibition of class I HDAC activity [1]: Class II HDAC (e.g., HDAC4 and HDAC5) inhibitor. Displays no inhibition of class I HDAC activity (e.g., HDAC1, HDAC2, HDAC3).
Cc1cc(Nc2ccc(NC(=O)c3ccc(Nc4ccnc5ccccc45)cc3)cc2)nc(N)n1 [SGI-1027]	19.9%	0.09357	
COc1cc2nc(N3CCCN(C)CC3)nc(NC3CCN(Cc4ccccc4)CC3)c2cc1OC [BIX01294]			proT cells generated from CD34+ HE cells after treatment with G9a inhibitors at different doses [2]: capable of promoting T cell differentiation; also recorded: significantly increased; Exemplary effective dose(s) ([2]; FIG. 12B): 200 nM
CNCc1ccc(-c2[nH]c3cc(F)cc4c3c2CCNC4=O)cc1 [Rucaparib]	37.2%	0.4679	
O=C(CCCCCN1C(=O)c2cccc3cccc(c23)C1=O)NO [Scriptaid]	19.7%	3.857	
CC(C)C(C(=O)Nc1ccc(C(=O)NO)cc1)c1ccccc1 (stereo not shown) [s-HDAC-42]	43.2%	4.263	
COC(=O)c1ccc2c(c1)nc(NC(=O)c1ccccc1)n2CCCc1ccccc1 [BRD4770]			proT cells generated from CD34+ HE cells after treatment with G9a inhibitors at different doses [2]: capable of promoting T cell differentiation; also recorded: significantly increased; Exemplary effective dose(s) ([2]; FIG. 12B): 200 nM
COc1cc2c(NC3CCN(C(C)C)CC3)nc(N3CCC(F)(F)CC3)nc2cc1OCCCN1CCCC1 [UNC0642]			proT cells generated from CD34+ HE cells after treatment with G9a inhibitors at different doses [2]: capable of promoting T cell differentiation; also recorded: significantly increased; Exemplary effective dose(s) ([2]; FIG. 12B): 40 nM
CN(C)c1ccc(C(=O)NCCCCCC(=O)NO)cc1 [CAY10398]	36.9%	4.181	
COc1cc2c(NC3CCN(CC4CCCCC4)CC3)nc(N3CCCN(C(C)C)CC3)nc2cc1OCCCN1CCCCC1 [UNC0631]			IC50 (MDA-MB-231 cells): 0.025 µM
O=C(CCCCCCC(=O)Nc1cccnc1)NO [Pyroxamide]	11.6%	3.122	
CCCCc1nc2cc(/C=C/C(=O)NO)ccc2n1CCN(CC)CC [SB939]	39.4%	5.042	IC50 (HDAC): 0.04 to 0.14 µM; activity against SIRT1 [3]: no activity
O=C(CCCCCCC(=O)Nc1ccccc1)NO [SAHA, suberoylanilide hydroxamic acid]	34.7%	7.987	
COc1cc2c(NC3CCN(C4CCCCC4)CC3)nc(N3CCCN(C(C)C)CC3)nc2cc1OCCCN1CCCCC1 [UNC0646]			IC50 (MDA-MB-231 cells): 0.026 µM
COCCCn1c(N)c(C(=O)NC2CCCC2)c2nc3ccccc3nc21 [CAY10591]	25.9%	8.576	proT cells generated from 5F HSPCs after treatment with primary hits (fold change / number) (5F cells (5F HSPCs)): significantly increased; also recorded: confirmed to promote T cell specification
COc1cc2c(NC3CCN(C(C)C)CC3)nc(C3CCCCC3)nc2cc1OCCCN1CCCC1 [UNC0638]			proT cells generated from CD34+ HE cells after treatment with G9a inhibitors at different doses [2]: capable of promoting T cell differentiation; also recorded: significantly increased; Exemplary effective dose(s) ([2]; FIG. 12B): 8 nM
O=C(CCCCCCC(=O)Nc1ccc(I)cc1)NO [4-iodo-SAHA]	25.3%	5.895	
COc1cc2c(NC3CCN(C)CC3)nc(N3CCCN(C)CC3)nc2cc1OCCCN(C)C [UNC0224]	15.0%	3.475	proT cells generated from 5F HSPCs after treatment with primary hits (fold change / number) (5F cells (5F HSPCs); listed as UNCO224): significantly increased; also recorded: confirmed to promote T cell specification; proT cells generated from CD34+ HE cells after treatment with G9a inhibitors at different doses [2]: capable of promoting T cell differentiation; fold change of proT cells generated from CD34+ HE cells at different doses ([2]; dose response, FIG. 12B): dose-dependent manner; proT cells generated from CD34+ HE cells (verification of primary hits) ([2]; second screen, primary hits tested in triplicate, FIG. 10B, listed as UNCO224): significantly increased; also recorded: significant increase; fold change of CD5+ CD7+ proT cells generated from CD34+ CD45+ HSPC cells (CD34+ CD45+ HSPC cells; UNC0224 500 nM vs DMSO, FIG. 14B/15A): significant increase; fold change of total cell numbers (CD34+ CD45+ HSPC cells; after 14 days of T cell differentiation, vs DMSO): significant decrease; percentage of CD5+ CD7+ proT cells (CD34+ CD45+ HSPC cells; vs DMSO, N=3): significant increase; number of erythroid or myeloid lineage colonies (CD34+ CD45+ HSPCs): significant decrease
